Measured values published in ChEMBL document CHEMBL1147319, “Spectroscopic and biological investigation of nimbolide and 28-deoxonimbolide from Azadirachta indica” (1989).
In brackets after ≈: the same amount, converted by molar mass.

Tests used:
Type in all cases: functional
HT-1080 = assay: Cytotoxicity against human HT1080 cells after 48 hrs; conditions: HT-1080, 48 h, read-out: ED50 (the source's name)
P388 = assay: Cytotoxicity against mouse P388 cells after 48 hrs; conditions: P388, 48 h, read-out: ED50 (the source's name)
[1] = Cytotoxicity against human BC1 cells after 72 hrs; conditions: BC1, 72 h, read-out: ED50 (the source's name)
KB = assay: Cytotoxicity against human KB cells after 72 hrs; conditions: read-out: ED50 (the source's name)
Lu1 = assay: Cytotoxicity against human Lu1 cells; conditions: read-out: ED50 (the source's name)
SK-MEL-2 = assay: Cytotoxicity against human SK-MEL-2 cells after 72 hrs; conditions: SK-MEL-2, 72 h, read-out: ED50 (the source's name)
Col2 = assay: Cytotoxicity against human Col2 cells after 72 hrs; conditions: Col2, 72 h, read-out: ED50 (the source's name)

Row | Structure (SMILES) | EC50 (HT-1080) [µg/mL] | EC50 (P388) [µg/mL] | EC50 [1] [µg/mL] | EC50 (KB) [µg/mL] | EC50 (Lu1) [µg/mL] | EC50 (SK-MEL-2) [µg/mL] | EC50 (Col2) [µg/mL]
1 | COC(=O)C[C@H]1[C@]2(C)C3=C(C)[C@H](c4ccoc4)C[C@H]3O[C@@H]2[C@@H]2OC[C@]3(C)C=CC(=O)[C@@]1(C)[C@@H]23 | 1.04 (≈ 2.3 µM) | 0.66 (≈ 1.46 µM) | 1.34 (≈ 2.96 µM) | 1.3 (≈ 2.87 µM) | 0.84 (≈ 1.86 µM) | 2.05 (≈ 4.53 µM) | 1.81 (≈ 4 µM)
2 | COC(=O)C[C@H]1[C@]2(C)C3=C(C)[C@H](c4ccoc4)C[C@H]3O[C@@H]2[C@@H]2OC(=O)[C@]3(C)C=CC(=O)[C@@]1(C)[C@@H]23 [NIMBOLIDE] | 0.31 (≈ 0.664 µM) | 0.065 (≈ 0.139 µM) | 0.39 (≈ 0.836 µM) | 0.25 (≈ 0.536 µM) | 0.42 (≈ 0.9 µM) | 0.53 (≈ 1.14 µM) | 0.41 (≈ 0.879 µM)
